Here are results for three compounds from article PMC3672848 (Journal of immunology (Baltimore, Md. : 1950), 2013).

What all share (type): cell-based
The target of assay [1] is T1, P2X7R (Homo sapiens, UniProt Q99572).
T1 sequence (Q99572 1-595): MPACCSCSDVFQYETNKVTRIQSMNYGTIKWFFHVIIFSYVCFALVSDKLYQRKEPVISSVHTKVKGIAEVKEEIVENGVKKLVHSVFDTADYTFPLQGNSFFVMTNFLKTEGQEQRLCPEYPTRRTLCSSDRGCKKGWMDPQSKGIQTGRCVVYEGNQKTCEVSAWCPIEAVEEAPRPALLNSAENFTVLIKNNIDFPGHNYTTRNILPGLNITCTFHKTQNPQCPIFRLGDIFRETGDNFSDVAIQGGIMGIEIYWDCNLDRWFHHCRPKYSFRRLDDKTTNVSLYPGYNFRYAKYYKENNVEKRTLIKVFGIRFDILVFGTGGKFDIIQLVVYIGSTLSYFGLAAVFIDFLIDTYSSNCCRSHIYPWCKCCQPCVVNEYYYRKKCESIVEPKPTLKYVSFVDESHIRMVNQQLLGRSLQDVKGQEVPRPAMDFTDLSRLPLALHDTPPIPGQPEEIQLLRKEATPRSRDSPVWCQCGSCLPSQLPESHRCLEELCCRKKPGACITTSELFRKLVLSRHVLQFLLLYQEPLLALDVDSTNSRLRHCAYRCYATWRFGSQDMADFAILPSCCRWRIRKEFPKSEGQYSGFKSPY
The assay is described as follows: whole-cell patch clamp:[…] blocks […] ATP-evoked current.

Assay [2] deals with T1, P2X7R. The assay is described as follows: whole-cell patch clamp, concentration-dependent inward currents. (In general: The patch-clamp technique gives a direct electrical read-out from membranes.)
The target of assay [3] is T1, P2X7R. The assay is described as follows: inhibition of ATP-induced.

Broadly, the IC50 is the concentration that inhibits the measured activity by half. Higher therefore signals a need for much substance. Compound `Clc1cccc(-c2nnnn2Cc2cccnc2)c1Cl` [A438079] displayed an IC50 in assay [1] of 2250 nM.
One may read the EC50 as the concentration giving half of the maximal effect. High values mean a need for much substance, low ones an effect from little substance. In turn, `Nc1ncnc2c1ncn2[C@@H]1O[C@H](COP(=O)(O)OP(=O)(O)OP(=O)(O)O)[C@@H](O)[C@H]1O` [ATP] gave an EC50 in assay [2] of 877000 nM.
Consider `O=C1CSC(=O)N1C(CCc1ccncc1)COc1ccc(-c2cccc([N+](=O)[O-])c2)cc1` (stereo not drawn) [AZ11645373], for which, in assay [3], the IC50 was 1350 nM.
